In US9434724B2, “Quinuclidines for modulating alpha 7 activity” (priority 2014, dated 2016):
Structures can show the parent of a compound that is named as a salt. Where two headings read alike, the source gives them in different places.

Tests used:
Human plasma stability = assay type: in vitro ADME; details: plasma, 5 μM
Method in brief: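 Compound remaining was quantified by LC-MS/MS as peak-area ratio to internal standard relative to time 0, with half-lives from single-exponential fits. Protocol 1 incubated 1 μM in heparinized human plasma (pH 7.4, 37° C) to 120 min; protocol 2 used 5 μM, pH 7.4–8.0, 37° C, n=2, to 120 min.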

Human α7 NAChR = Human α7 NAChR (Homo sapiens (Human), UniProt P36544); experiment: Electrophysiology screen at 1 μM in Xenopus laevis oocytes; assay type: cell-based; details: 1 μM test compound; Imax = maximal current produced by 3 mM ACh
Sequence of Human α7 NAChR (P36544 23-502 limits assumed): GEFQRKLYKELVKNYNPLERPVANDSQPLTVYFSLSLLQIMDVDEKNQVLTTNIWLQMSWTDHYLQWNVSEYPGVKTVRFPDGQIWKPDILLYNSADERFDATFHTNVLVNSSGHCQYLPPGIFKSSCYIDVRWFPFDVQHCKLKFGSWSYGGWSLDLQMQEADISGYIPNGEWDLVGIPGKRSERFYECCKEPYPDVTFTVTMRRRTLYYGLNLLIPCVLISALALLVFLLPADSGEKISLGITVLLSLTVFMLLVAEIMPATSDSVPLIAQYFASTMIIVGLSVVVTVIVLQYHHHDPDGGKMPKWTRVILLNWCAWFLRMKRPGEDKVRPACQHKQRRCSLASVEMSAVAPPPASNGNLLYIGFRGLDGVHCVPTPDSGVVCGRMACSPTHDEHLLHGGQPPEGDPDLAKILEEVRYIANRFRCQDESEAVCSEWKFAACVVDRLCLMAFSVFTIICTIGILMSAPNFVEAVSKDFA
Description: Human α7 NAChR plasmid was prepared by GeneWiz from accession NM_000746.5. Human α7 NAChR mRNA was prepared by TriLink at a concentration near 1 μg/μL. The human α7 NAChR mRNA was diluted in sterile water to a working concentration near 10 ng/μL.
Oocytes were obtained from Xenopus laevis frogs and treated with collagenase by Ecocyte Bioscience. Oocytes were injected with the working concentration of α7 NAChR mRNA at a volume of 50 nL for a total of approximately 0.5 ng of α7 NAChR mRNA. Oocytes were maintained in Barth's solution at a temperature of 16° C. The Barth's solution was replaced daily.
Two-electrode voltage clamp recordings were made 3-14 days following mRNA injections at a holding voltage of −70 mV. The NAChR recordings were performed in Ca^++-free Ringer solution (115 mM NaCl, 2 mM KCl, 1.8 mM BaCl2, 5 mM HEPES; pH˜7.4) to limit Ca^++-activated chloride currents.
In all oocyte recordings, drug and wash solutions were applied using a custom-designed microcapillary “linear array” which allows rapid application of agonists. Currents were recorded on a PC-based computer (PClamp, Molecular Devices, Sunnyvale, Calif.). Responses were reported as (I/Imax), where I is the amount of current given by a selected concentration of drug and Imax is the amount of maximal current produced by a 3 mM solution of ACh.
Stocks of test compounds were prepared in DMSO. Test solutions in Ringer were prepared immediately before application of test compound (final DMSO concentration of 0.1%). The final concentration of test compound in the test solution was 1 μM. The test solution was perfused onto the oocyte until a peak current was recorded. There was approximately two minutes of wash time with only the Ringer solution between each application of agonist. Measurement of the test solution was repeated between 2 and 6 times with a two minute wash time between each application of test solution. An average of the currents for each test compound was used to define the response for the test compound.

[1] = target: T1, rat brain nicotinic receptor (α7 NAChR) (Rattus norvegicus (Rat), UniProt Q05941); assay type: binding
T1 sequence (Q05941 23-502 limits assumed): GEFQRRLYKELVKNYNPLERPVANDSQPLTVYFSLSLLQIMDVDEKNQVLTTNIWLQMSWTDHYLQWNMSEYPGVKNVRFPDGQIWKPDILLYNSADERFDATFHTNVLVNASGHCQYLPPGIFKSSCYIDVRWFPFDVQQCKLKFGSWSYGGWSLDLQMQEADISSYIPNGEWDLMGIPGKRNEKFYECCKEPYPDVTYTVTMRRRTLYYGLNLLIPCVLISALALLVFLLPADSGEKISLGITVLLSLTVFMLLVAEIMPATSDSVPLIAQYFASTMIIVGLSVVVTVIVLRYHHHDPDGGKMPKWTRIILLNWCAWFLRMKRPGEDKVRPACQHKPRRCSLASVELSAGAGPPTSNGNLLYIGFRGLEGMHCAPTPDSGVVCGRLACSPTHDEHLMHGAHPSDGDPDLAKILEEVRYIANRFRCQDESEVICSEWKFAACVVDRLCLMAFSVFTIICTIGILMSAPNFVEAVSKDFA

[2] = Metabolic stability assay in human liver microsomes (HLM); assay type: in vitro ADME; details: 1 μM
Method in brief: (§1)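 In Protocol 1, compound was 1 μM final with NADPH at 37 °C, sampled at 0–45 min. In Protocol 2, 1.5 μM compound with 0.75 mg/mL microsomes (pre-NADPH mix) in 0.1 M potassium phosphate, 1 mM EDTA, pH 7.4 was pre-incubated 10 min, then NADPH started the reaction. Both: LC-MS/MS % remaining versus time 0, half-life from single-phase exponential fit.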

[3] = Metabolic stability assay in rat liver microsomes (RLM); assay type: in vitro ADME; details: 1 μM
Method in brief: as §1

CYP3A4 = CYP3A4 (Homo sapiens (Human), UniProt P08684); details: microsomes, 5 min
Sequence of CYP3A4 (P08684 whole entry): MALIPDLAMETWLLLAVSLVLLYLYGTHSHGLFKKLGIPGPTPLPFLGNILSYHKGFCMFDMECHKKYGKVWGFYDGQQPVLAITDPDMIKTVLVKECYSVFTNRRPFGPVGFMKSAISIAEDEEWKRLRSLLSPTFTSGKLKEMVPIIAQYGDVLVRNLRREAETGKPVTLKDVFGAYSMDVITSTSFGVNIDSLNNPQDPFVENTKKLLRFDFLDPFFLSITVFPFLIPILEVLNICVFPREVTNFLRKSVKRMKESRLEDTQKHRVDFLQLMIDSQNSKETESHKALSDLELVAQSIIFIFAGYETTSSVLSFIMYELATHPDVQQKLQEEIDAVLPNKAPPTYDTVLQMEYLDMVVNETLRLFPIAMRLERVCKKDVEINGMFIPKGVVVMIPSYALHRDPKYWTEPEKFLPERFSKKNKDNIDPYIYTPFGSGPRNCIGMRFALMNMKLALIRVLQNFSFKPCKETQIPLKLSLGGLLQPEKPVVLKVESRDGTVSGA

CYP2D6 = CYP2D6 (Homo sapiens (Human), UniProt P10635); experiment: Cytochrome P450 inhibition in human liver microsomes, CYP2D6; details: read-out: 2D6 IC50, Protocol 1
Sequence of CYP2D6 (P10635 whole entry): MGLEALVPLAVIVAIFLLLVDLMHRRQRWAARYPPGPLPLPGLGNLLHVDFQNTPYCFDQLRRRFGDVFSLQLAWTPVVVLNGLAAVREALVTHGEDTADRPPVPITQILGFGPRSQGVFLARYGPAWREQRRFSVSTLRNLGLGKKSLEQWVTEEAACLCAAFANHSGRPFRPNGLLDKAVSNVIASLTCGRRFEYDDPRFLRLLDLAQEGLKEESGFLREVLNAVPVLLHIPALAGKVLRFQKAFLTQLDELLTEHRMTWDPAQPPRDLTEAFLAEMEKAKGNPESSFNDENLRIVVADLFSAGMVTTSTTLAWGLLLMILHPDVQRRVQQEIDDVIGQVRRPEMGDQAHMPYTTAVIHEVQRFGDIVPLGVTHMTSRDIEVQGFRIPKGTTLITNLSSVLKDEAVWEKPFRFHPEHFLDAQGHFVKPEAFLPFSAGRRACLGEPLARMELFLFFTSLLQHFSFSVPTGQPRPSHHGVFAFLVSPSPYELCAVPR

CYP2C19 = CYP2C19 (Homo sapiens (Human), UniProt P33261); details: microsomes, 45 min
Sequence of CYP2C19 (P33261 whole entry): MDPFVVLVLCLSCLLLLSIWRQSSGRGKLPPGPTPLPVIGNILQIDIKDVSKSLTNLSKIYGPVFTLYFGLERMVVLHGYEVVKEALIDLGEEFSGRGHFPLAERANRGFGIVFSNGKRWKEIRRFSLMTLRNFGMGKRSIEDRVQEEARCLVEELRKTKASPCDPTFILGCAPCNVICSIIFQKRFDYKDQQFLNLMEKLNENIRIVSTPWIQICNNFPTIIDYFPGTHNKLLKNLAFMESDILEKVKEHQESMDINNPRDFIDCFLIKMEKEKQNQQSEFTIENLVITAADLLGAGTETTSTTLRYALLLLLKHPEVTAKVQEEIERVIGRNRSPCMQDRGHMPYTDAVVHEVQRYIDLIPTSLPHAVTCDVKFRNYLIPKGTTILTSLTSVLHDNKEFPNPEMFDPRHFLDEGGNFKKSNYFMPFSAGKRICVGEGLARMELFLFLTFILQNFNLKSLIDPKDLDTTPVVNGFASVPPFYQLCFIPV

CYP1A2 = CYP1A2 (Homo sapiens (Human), UniProt P05177); experiment: Cytochrome P450 inhibition in human liver microsomes, CYP1A2; details: read-out: 1A2 IC50, Protocol 1
Sequence of CYP1A2 (P05177 whole entry): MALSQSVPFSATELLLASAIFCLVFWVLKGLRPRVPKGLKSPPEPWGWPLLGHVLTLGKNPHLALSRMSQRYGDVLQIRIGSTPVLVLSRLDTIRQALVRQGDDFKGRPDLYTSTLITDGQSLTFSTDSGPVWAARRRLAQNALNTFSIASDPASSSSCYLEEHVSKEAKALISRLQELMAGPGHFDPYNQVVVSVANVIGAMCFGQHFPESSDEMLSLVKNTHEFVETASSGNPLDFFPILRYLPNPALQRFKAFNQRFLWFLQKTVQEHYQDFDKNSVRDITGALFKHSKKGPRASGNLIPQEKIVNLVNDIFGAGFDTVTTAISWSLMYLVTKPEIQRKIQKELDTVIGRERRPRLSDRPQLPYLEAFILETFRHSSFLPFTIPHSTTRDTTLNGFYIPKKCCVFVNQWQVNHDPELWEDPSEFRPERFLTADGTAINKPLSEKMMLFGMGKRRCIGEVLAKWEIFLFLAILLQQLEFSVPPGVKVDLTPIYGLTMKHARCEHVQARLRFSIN

[4] = target: T1, rat brain nicotinic receptor (α7 NAChR); assay type: binding; details: Protocol No. 2; [3H] α-Bungarotoxin 0.4 nM, rat brain P2 membrane
[5] = Protocol No. 1, human liver microsomes
[6] = Protocol No. 1, rat liver microsomes

Row | SMILES | % Remaining @ 2 h (Human plasma stability; Protocol No. 2, 37° C.) [%] | I/Imax (Human α7 NAChR) | IC50 [1] [µM] | Ki [1] [µM] | HLM [2, 5] [mL/min/kg] | RLM [3, 6] [mL/min/kg] | % Remaining @ 2 h (Human plasma stability; human, 2 h) [%] | IC50 (CYP3A4) [µM] | IC50 (CYP2D6) [µM] | IC50 (CYP2C19) [µM] | IC50 (CYP1A2) [µM] | HLM ([2]; human, microsomes) [mL/min/kg] | RLM ([3]; rat, microsomes) [mL/min/kg] | IC50 [4] [µM] | Ki [4] [µM]
1 | COc1cc(Cl)cc2[nH]cc(C(=O)OCC34CCN(CC3)CC4)c12.Cl [Compound 74, quinuclidin-4-ylmethyl 6-chloro-4-methoxy-1H-indole-3-carboxylate hydrochloride] | 61.85 | 0.157 | 0.181 | 0.154 | 9.6502 | 342.736 |  |  |  |  |  |  |  |  | 
2 | Cc1cc2c(C(=O)OCC34CCN(CC3)CC4)c[nH]c2cc1O [Compound 55, quinuclidin-4-ylmethyl 6-hydroxy-5-methyl-1H-indole-3-carboxylate] |  |  | 0.0523 | 0.0448 |  |  | 40.33 | > 10 | > 10 | > 10 | > 10 | 10.3473 | 45.1417 |  | 
3 | Cc1cc(C#N)cc2[nH]cc(C(=O)OCC34CCN(CC3)CC4)c12 [Compound 60, quinuclidin-4-ylmethyl 6-cyano-4-methyl-1H-indole-3-carboxylate] |  |  | 0.474 | 0.407 |  |  | 89.46 | > 10 | > 10 | > 10 | > 10 | 15.0953 | 78.5875 |  | 
4 | COCCCOc1ccc2[nH]cc(C(=O)OCC34CCN(CC3)CC4)c2c1C [Compound 92, quinuclidin-4-ylmethyl 5-(3-methoxypropoxy)-4-methyl-1H-indole-3-carboxylate] |  | 0.266 |  |  |  |  | 64.72 |  |  |  |  | 10.37 | 149.88 | 0.0761 | 0.133
5 | Cc1cc2[nH]cc(C(=O)OCC34CCN(CC3)CC4)c2cc1F [Compound 72, Quinuclidin-4-ylmethyl 5-fluoro-6-methyl-1H-indole-3-carboxylate hydrochloride] | 70.78 | 0.347 | 0.145 | 0.125 | 3.032 | 339.452 |  |  |  |  |  |  |  |  | 
6 | Cc1ccc2[nH]cc(C(=O)OCC34CCN(CC3)CC4)c2c1Cl [Compound 63, quinuclidin-4-ylmethyl 4-chloro-5-methyl-1H-indole-3-carboxylate] |  | 0.118 | 0.117 | 0.101 |  |  | 74.47 |  |  |  |  | 0.4623 | 1465.43 |  | 
7 | Cc1cc2[nH]cc(C(=O)OCC34CCN(CC3)CC4)c2cc1C.Cl [Compound 73, Quinuclidin-4-ylmethyl 5,6-dimethyl-1H-indole-3-carboxylate hydrochloride] | 41.93 | 0.367 | 0.168 | 0.145 | 2.825 | 766.779 |  |  |  |  |  |  |  |  | 
8 | Cl.O=C(OCC12CCN(CC1)CC2)c1c[nH]c2cccc(C(F)(F)F)c12 [Compound 80, Quinuclidin-4-ylmethyl 4-(trifluoromethyl)-1H-indole-3-carboxylate hydrochloride] | 81.31 | 0.032 | 0.203 | 0.176 | 5.54 | 1443.16 |  |  |  |  |  |  |  |  | 
9 | COCCOc1ccc2[nH]cc(C(=O)OCC34CCN(CC3)CC4)c2c1C [Compound 91, quinuclidin-4-ylmethyl 5-(2-methoxyethoxy)-4-methyl-1H-indole-3-carboxylate] |  | 0.205 |  |  |  |  | 81.12 |  |  |  |  | 6.14 | 235.4 | 0.221 | 0.859
10 | O=C(OCC12CCN(CC1)CC2)c1c[nH]c2ccc(F)c(Cl)c12 [Compound 62, quinuclidin-4-ylmethyl 4-chloro-5-fluoro-1H-indole-3-carboxylate hydrochloride] |  | 0.171 | 0.113 | 0.0976 |  |  | 74.02 |  |  |  |  | 7.061 | 498.991 |  | 
